Measured values published in US10745400B2, “Inhibition of BMP signaling, compounds, compositions and uses thereof” (Vanderbilt University, priority 2018, dated 2020).
Where a chain is given by its changes, count along the chain named. pIC50: −log10 of the molar value.

Columns and labels:
[1] = test system: BMP-responsive C2C12 mouse myoblast cells stimulated with BMP4; assay: BMP4 cell assay (Id1 promoter-firefly luciferase reporter); type: cell-based; conditions: Mus musculus, C2C12, C2C12 cells, BMP4 50 ng/mL, overnight
Experimental: The BMP4 cell assay were carried out briefly as follows. Stably transfected BMP-responsive C2C12 mouse myoblast cells (containing the Idl promoter-firefly luciferase reporter) were seeded in 96-well plates and incubated overnight with the compounds and BMP4 (50 ng/mL). The cells were then lysed, and cell extracts were then subjected to the firefly luciferase assay using Steady-Glo luciferase assay kit (Promega). The results were normalized to cell titers, as measured using Cell Titer-Glo luminescence assay (Promega). […] Relative activity was quantified by the ratio of firefly to Renilla luciferase activities using the dual luciferase assay kit (Promega).

[2] = Intrinsic clearance, human; type: in vitro ADME; conditions: human
[3] = Intrinsic clearance, mouse; type: in vitro ADME; conditions: mouse
Protein binding, human = type: in vitro ADME
Protein binding, mouse = type: in vitro ADME
ALK1/ACVRL1 = ALK1/ACVRL1 (Homo sapiens, UniProt P37023); assay: Kinase assay (33P-ATP filter-binding), ALK1; type: biochemical; conditions: read-out: Kinase Selectivity ALK1/ACVRL1
Sequence of ALK1/ACVRL1 (P37023 22-503): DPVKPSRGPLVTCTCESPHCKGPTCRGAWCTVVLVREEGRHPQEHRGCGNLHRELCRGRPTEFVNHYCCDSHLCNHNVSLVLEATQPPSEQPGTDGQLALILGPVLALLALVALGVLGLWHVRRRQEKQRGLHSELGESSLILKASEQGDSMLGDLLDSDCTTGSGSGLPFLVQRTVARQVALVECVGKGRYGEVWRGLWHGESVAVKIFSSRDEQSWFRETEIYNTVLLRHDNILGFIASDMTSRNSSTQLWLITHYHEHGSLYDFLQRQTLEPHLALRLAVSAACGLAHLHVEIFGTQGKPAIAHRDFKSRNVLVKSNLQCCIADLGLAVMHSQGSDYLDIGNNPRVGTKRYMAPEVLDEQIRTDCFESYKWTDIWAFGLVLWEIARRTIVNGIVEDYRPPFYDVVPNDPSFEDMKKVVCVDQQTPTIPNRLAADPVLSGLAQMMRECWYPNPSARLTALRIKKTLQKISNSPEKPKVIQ
Experimental: (§1) The kinase assays were carried out briefly as follows. Substrate was prepared in Base Reaction Buffer (20 mM Hepes (pH 7.5), 10 mM MgCl2, 1 mM EGTA, 0.02% Brij35, 0.02 mg/ml BSA, 0.1 mM Na3VO4, 2 mM DTT, 1% DMSO). The indicated kinases was delivered into the substrate solution and allowed to gently mix. Next, the specific compound was delivered in DMSO into the kinase mixture by Acoustic technology (Echo550; nanoliter range), and allowed to incubate for 20 minutes at room temperature. Next, ^33P-ATP was delivered into the reaction mixture to initiate the reaction and allowed to incubate at room temperature. After 2 hours, the reactions were spotted onto P81 ion exchange paper and the kinase activity is detected by the filter-binding method.

ALK2/ACVR1 = target: T1, ALK2/ACVR1 (Homo sapiens, UniProt Q04771); assay: Kinase assay (33P-ATP filter-binding), ALK2; type: biochemical; conditions: 20 mM; read-out: Kinase Selectivity ALK2/ACVR1 (20 mM)
T1 sequence (Q04771 21-509): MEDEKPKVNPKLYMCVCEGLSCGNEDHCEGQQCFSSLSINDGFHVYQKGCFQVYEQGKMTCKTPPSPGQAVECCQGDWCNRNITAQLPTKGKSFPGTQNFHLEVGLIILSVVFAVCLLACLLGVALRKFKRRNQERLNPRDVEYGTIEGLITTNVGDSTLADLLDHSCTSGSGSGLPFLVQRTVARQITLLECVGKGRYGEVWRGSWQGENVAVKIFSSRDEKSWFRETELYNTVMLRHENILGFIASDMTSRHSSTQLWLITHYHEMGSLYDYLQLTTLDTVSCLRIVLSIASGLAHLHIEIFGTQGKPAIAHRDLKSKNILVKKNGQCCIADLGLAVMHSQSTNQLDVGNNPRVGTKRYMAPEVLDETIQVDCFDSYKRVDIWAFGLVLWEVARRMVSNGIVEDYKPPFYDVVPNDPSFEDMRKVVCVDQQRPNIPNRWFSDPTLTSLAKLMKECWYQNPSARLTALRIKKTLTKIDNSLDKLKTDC
Experimental: as §1

ALK2 (Q207D) = target: T2, ALK2 (Q207D) (Homo sapiens, UniProt Q04771, Q207D); assay: Kinase assay (33P-ATP filter-binding), ALK2 Q207D; type: biochemical; conditions: Q207D mutant, 20 mM; read-out: Kinase Selectivity ALK2 (Q207D, 20 mM)
T2 sequence (Q04771 21-509 Q207D): T1 sequence (Q04771 21-509) with Q187D
Experimental: as §1

ALK2 (R206H) = target: T3, ALK2 (R206H) (Homo sapiens, UniProt Q04771, R206H); assay: Kinase assay (33P-ATP filter-binding), ALK2 R206H; type: biochemical; conditions: R206H mutant, 20 mM; read-out: Kinase Selectivity ALK2 (R206H, 20 mM)
T3 sequence (Q04771 21-509 R206H): T1 sequence (Q04771 21-509) with R186H
Experimental: as §1

ALK3/BMPR1A = ALK3/BMPR1A (Homo sapiens, UniProt P36894); assay: Kinase assay (33P-ATP filter-binding), ALK3; type: biochemical; conditions: 1 mM; read-out: Kinase Selectivity ALK3/BMPR1A (1 mM)
Sequence of ALK3/BMPR1A (P36894 24-532): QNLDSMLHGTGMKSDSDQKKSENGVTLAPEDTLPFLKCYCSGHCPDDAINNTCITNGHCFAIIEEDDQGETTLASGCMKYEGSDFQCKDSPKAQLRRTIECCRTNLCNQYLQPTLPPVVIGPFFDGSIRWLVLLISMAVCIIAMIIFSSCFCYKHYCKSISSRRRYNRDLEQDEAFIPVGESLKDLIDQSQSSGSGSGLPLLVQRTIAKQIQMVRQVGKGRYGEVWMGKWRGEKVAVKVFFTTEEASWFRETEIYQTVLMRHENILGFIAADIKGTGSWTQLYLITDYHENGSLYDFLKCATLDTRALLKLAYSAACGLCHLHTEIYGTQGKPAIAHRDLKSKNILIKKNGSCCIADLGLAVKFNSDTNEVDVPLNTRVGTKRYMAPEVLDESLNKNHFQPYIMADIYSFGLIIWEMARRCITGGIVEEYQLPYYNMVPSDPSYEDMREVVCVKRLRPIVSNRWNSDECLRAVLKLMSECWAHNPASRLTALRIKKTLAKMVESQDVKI
Experimental: as §1

[4] = CL-Hep, value in parentheses, read-out: Intrinsic Clearance Human (CL-Hep)
[5] = read-out: Intrinsic Clearance Human
[6] = CL-Hep, value in parentheses, read-out: Intrinsic Clearance Mouse (CL-Hep)
[7] = read-out: Intrinsic Clearance Mouse

Structure (SMILES)	pIC50 [1]	CLint scaled [2, 4] [mL/min/kg]	CLint scaled [2, 5] [mL/min/kg]	CLint scaled [3, 6] [mL/min/kg]	CLint scaled [3, 7] [mL/min/kg]	Protein Binding (% Free) Human (Protein binding, human) [% Free]	Protein Binding (% Free) Mouse (Protein binding, mouse) [% Free]	pIC50 (ALK1/ACVRL1)	pIC50 (ALK2/ACVR1)	pIC50 (ALK2 (Q207D))	pIC50 (ALK2 (R206H))	pIC50 (ALK3/BMPR1A)
Cc1cc(-c2cnc3cc(-c4ccc(C5CNCCN5)cc4)ccn23)c2ccccc2n1 (stereo not drawn) [Compound 12]	7.87	< 10.7	< 23.1	< 32.9	< 49.5	13.6	4.94					
Cc1cc(-c2cnc3cc(-c4ccc(N5CCC6(CCCCN6)CC5)cc4)ccn23)c2cc(F)cc(F)c2n1 [Compound 25]		14	46.3	97.8	198	1.43	0.55	6.11	7.26	6.77	6.59	7.26
Cc1cc(-c2cnc3cc(-c4ccc(N5CCNC(C)(C)C5)cc4)ccn23)c2cc(F)cc(F)c2n1 [Compound 26]		< 10.7	< 23.1	47.1	99	0.61	1.03	6.48	7.83	7.16	7.10	8.24

Continued by rising pIC50 (ALK1/ACVRL1), values first:

pIC50 [1]	CLint scaled [2, 4] [mL/min/kg]	CLint scaled [2, 5] [mL/min/kg]	CLint scaled [3, 6] [mL/min/kg]	CLint scaled [3, 7] [mL/min/kg]	Protein Binding (% Free) Human (Protein binding, human) [% Free]	Protein Binding (% Free) Mouse (Protein binding, mouse) [% Free]	pIC50 (ALK1/ACVRL1)	pIC50 (ALK2/ACVR1)	pIC50 (ALK2 (Q207D))	pIC50 (ALK2 (R206H))	pIC50 (ALK3/BMPR1A)	Structure (SMILES)
	< 11	< 23.1	33.6	53.5	16.2	6.8	7.51	7.70	> 8.29	7.69	7.67	c1cnc2scc(-c3cnc4cc(-c5ccc(C6CNCCN6)cc5)ccn34)c2c1 (stereo not drawn) [Compound 31]
	12.3	29.6	< 31.9	< 49.5	39.4	21.2	7.77	8.21	> 8.29	8.12	> 8.29	c1cnc2c(-c3cnc4cc(-c5ccc(C6CNCCN6)cc5)ccn34)ccnc2c1 (stereo not drawn) [Compound 34]
